Measurements taken from patent publication US20140263071A1, “METHOD FOR COLLECTING METALS” (CHEMEC OY AB, priority 2011, published 2014).
Where two headings read alike, the source gives them in different places. Marks after values point to notes of the source that are not given here.

Assays:
[1] = Purification of water draining through the dump site, TS 1 (Example 16); conditions: Mo^2+
[2] = Optimal expulsion pH range with minimum expulsion percent, single elements (Example 7)
Method: A water solution (110 ml) containing known amount of single cationic element or elements, typically 0.5-200 ppm, was prepared from Merch Titrisol® standard solution. After adjusting pH by using acid (e.g. HCl or HNO3) or base (e.g. NaOH) to desired initial value, sample A (10 ml) was taken followed by adding 100 mg of selected solid complexation agent. The mixture was stirred at room temperature for 24 h and sample B (10 ml) was taken. Samples A and B were filtrated separately trough 0.2 μm syringe filter and the concentration of the studied element or elements in both solution was determined by using atomic absorption spectrophotometer. The expulsion percent was determined from the concentration differences between the sample solutions A and B.
Using the above mentioned general procedure optimal expulsion pH ranges for each metal with complexation agent 1a was determined. For each element the expulsion percent was determined in 5-14 different pH value. The obtained results are shown in table below with minimum expulsion percent inside the optimal pH range.

[3] = Solubility of the compounds, molybdenum blue method, UV/Vis 880 nm (Example 6); format: physicochemical; conditions: saturated aqueous solution
Source text: The low solubility is achieved by using long carbon chain(s) or aromatic ring(s) in the bisphosphonate structure I. Advantageously, compound I contains 7-16 carbon atoms either in chain, branched chain or cyclic structure or in combination of these structural units between A and X, and preferably in the chain starting from the P-C-P bridging carbon and the number of heteroatomic functional groups excluding the phosphorous functionalities are limited to two or three groups. The solubility decreases even more if compound I contains functional groups which are capable to form twitter ions with each other. Typical examples of twitter ions are acids (e.g., —CO2H or —PO3H2) and bases (amines) in the same molecule. Solubilities of selected bisphosphonate compounds I were determined with UV/Vis spectrophotometer at 880 nm using molybdenum blue method (Finnish Standard Association SFS 3026: Determination of phosphate in water. Finnish Standard Association SFS, Helsinki Finland, 1986).
Solubilities of selected compounds were determined with UV/Vis Spectrophotometer at 880 nm using molybdenum blue method from saturated aqueous samples solutions (Finnish Standard Association SFS 3026: Determination of phosphate in water. Finnish Standard Association SFS, Helsinki Finland, 1986).

[4] = Separation of silver with complexation agent by HCl elution (Example 20); conditions: for Concentration after 1a: mixture of Ag^+, 1a 10 g, 48 h; for End concentration in 1a: after HCl elutions; for Metals in 0.01M HCl: elution of loaded 1a with 0.01 M HCl (60 ml); for Metals in 0.1M HCl: elution of loaded 1a with 0.1 M HCl (60 ml); for Metals in 1M HCl: elution of loaded 1a with 1 M HCl (60 ml)
Method: A mixture of Cu(NO3)2×3H2O (20 ml, 0.1 M), AgNO3 (20 ml, 0.1 M), Fe(NO3)3 (20 ml, 0.1 M), water (40 ml) and 1a (10 g) were stirred for 48 h at room temperature. Solids were collected to sintered disc (porosity G-4), washed with water (60 ml) and eluted with 0.01 M (60 ml), 0.1 M (60 ml) and 1 M (60 ml) HCl solutions. Amounts of each metals in eluted HCl solutions were determined by AAS using standard procedures.

For NCCCCCCCCCCC(O)(P(=O)(O)O)P(=O)(O)O [Compound 1a, 11-Amino-1-hydroxyundecane-1,1-diyldiphosphonic acid], the “Expulsion [%]” value ([1]; Spiked TS 1) was ≥ 52^2) %, the “Expulsion [%]” value ([1]; TS 1) was ≥ 58^2) % and the “Expulsion [%]” value ([2]; Ag^+, minimum within pH range 1.5-12) was greater than 84%. The “Expulsion [%]” value ([2]; Al^3+, minimum within pH range 1-2) was greater than 96%, the “Expulsion [%]” value ([2]; Au^3+, minimum within pH range 0-2) was greater than 39% and the “Expulsion [%]” value ([2]; Ba^2+, minimum within pH range 3-12) was greater than 75%. For the same compound, the “Expulsion [%]” value ([2]; Bi^3+, minimum within pH range 0.5-4) was 100%, the “Expulsion [%]” value ([2]; Ca^2+, minimum within pH range 4-12) was greater than 50% and the “Expulsion [%]” value ([2]; Cd^2+, minimum within pH range 3-11) was greater than 36%. The “Expulsion [%]” value ([2]; Co^2+, minimum within pH range 4-11) was greater than 77%, the “Expulsion [%]” value ([2]; Cr^3+, minimum within pH range 2.5-12) was greater than 60% and the “Expulsion [%]” value ([2]; Cr^6+, As^3/5+, Ta^5+, within pH range 0-12) was less than 8%. For the same compound, the “Expulsion [%]” value ([2]; Cu^2+, minimum within pH range 3-11) was greater than 87%, the “Expulsion [%]” value ([2]; Cu^+, minimum within pH range 3-11) was greater than 79% and the “Expulsion [%]” value ([2]; Eu^3+, minimum within pH range 2-8) was 70%. For the same compound, the “Expulsion [%]” value ([2]; Fe^2+, minimum within pH range 3-10) was greater than 79%, the “Expulsion [%]” value ([2]; Fe^3+, minimum within pH range 1-11) was greater than 55% and the “Expulsion [%]” value ([2]; Ga^3+, minimum within pH range 0.5-1) was 100%. For the same compound, the “Expulsion [%]” value ([2]; Ga^3+, minimum within pH range 6-11) was greater than 90%, the “Expulsion [%]” value ([2]; Hg^2+, minimum within pH range 2-11) was greater than 90% and the “Expulsion [%]” value ([2]; Hg^+, minimum within pH range 2-11) was greater than 80%. The “Expulsion [%]” value ([2]; Ir^3+, minimum within pH range 0.0-0.5) was greater than 65%, the “Expulsion [%]” value ([2]; La^3+, minimum within pH range 0-3.8) was greater than 40% and the “Expulsion [%]” value ([2]; Li^+, Na^+, K^+, within pH range 0-12) was less than 5%. For the same compound, the “Expulsion [%]” value ([2]; Mg^2+, minimum within pH range 4-12) was greater than 74%, the “Expulsion [%]” value ([2]; Mn^2+, minimum within pH range 4-10) was greater than 69% and the “Expulsion [%]” value ([2]; Mo^6+, minimum within pH range 4-10) was greater than 55%. For the same compound, the “Expulsion [%]” value ([2]; Nb^5+, minimum within pH range 0-12) was greater than 40%, the “Expulsion [%]” value ([2]; Nd^3+, minimum within pH range 2-8) was greater than 75% and the “Expulsion [%]” value ([2]; Ni^2+, minimum within pH range 4-11) was greater than 40%. The “Expulsion [%]” value ([2]; Os^4+, minimum within pH range 5-7) was greater than 40%, the “Expulsion [%]” value ([2]; Pb^2+, minimum within pH range 2-9) was greater than 79% and the “Expulsion [%]” value ([2]; Pd^2+, minimum within pH range 7-12) was greater than 65%. For the same compound, the “Expulsion [%]” value ([2]; Pt^2+, minimum within pH range 0-1) was greater than 60%, the “Expulsion [%]” value ([2]; Rh^3+, minimum within pH range 2-10) was greater than 19% and the “Expulsion [%]” value ([2]; Ru^3+, minimum within pH range 2-11) was greater than 55%. The “Expulsion [%]” value ([2]; Sb^3+, minimum within pH range 0.5-11) was greater than 75%, the “Expulsion [%]” value ([2]; Sc^3+, minimum within pH range 0-12) was greater than 80% and the “Expulsion [%]” value ([2]; Si^4+, Se^4/6+, within pH range 0-12) was less than 2%. For the same compound, the “Expulsion [%]” value ([2]; Sn^2+, minimum within pH range 8-10) was 100%, the “Expulsion [%]” value ([2]; Sn^4+, minimum within pH range 7-11) was greater than 91% and the “Expulsion [%]” value ([2]; Sr^2+, minimum within pH range 4-12) was greater than 80%. For the same compound, the “Expulsion [%]” value ([2]; Ti^4+, minimum within pH range 10-12) was greater than 35%, the “Expulsion [%]” value ([2]; V^4+, minimum within pH range 0-0.5) was greater than 30% and the “Expulsion [%]” value ([2]; W^6+, minimum within pH range 0.5-3) was greater than 12%. The “Expulsion [%]” value ([2]; Y^3+, minimum within pH range 1.5-4 >10) was greater than 60%, the “Expulsion [%]” value ([2]; Zn^2+, minimum within pH range 4-11) was greater than 75% and the “Expulsion [%]” value ([2]; Zr^4+, minimum within pH range 0-4.8-10) was 60%. For the same compound, the solubility [3] was 59 mg/L, the solubility ([3]; read-out: mg/l P (solubility calculated as elemental phosphorus)) was 10 mg/L and the “Amounts of metals in 1a” value ([4]; Ag^+) was 1320 mg/L. The “Concentration after 1a” value ([4]; Ag^+, initial 2050 mg/l, Cu^2+, Fe^3+) was 730 mg/L, the “End concentration in 1a” value ([4]; Ag^+) was 1300 mg/L and the “Metals in 0.01M HCl” value ([4]; Ag^+) was 10 mg/L. The “Metals in 0.1M HCl” value ([4]; Ag^+) was 0 mg/L, the “Metals in 1M HCl” value ([4]; Ag^+) was 10 mg/L and the “Amounts of metals in 1a” value ([4]; Cu^2+) was 210 mg/L. For the same compound, the “Concentration after 1a” value ([4]; Cu^2+, initial 1310 mg/l, Cu^2+, Fe^3+) was 1100 mg/L, the “End concentration in 1a” value ([4]; Cu^2+) was 0 mg/L and the “Metals in 0.01M HCl” value ([4]; Cu^2+) was 0 mg/L. The “Metals in 0.1M HCl” value ([4]; Cu^2+) was 10 mg/L, the “Metals in 1M HCl” value ([4]; Cu^2+) was 200 mg/L and the “Amounts of metals in 1a” value ([4]; Fe^3+) was 80 mg/L. For the same compound, the “Concentration after 1a” value ([4]; Fe^3+, initial 1040 mg/l, Cu^2+, Fe^3+) was 960 mg/L, the “End concentration in 1a” value ([4]; Fe^3+) was 0 mg/L and the “Metals in 0.01M HCl” value ([4]; Fe^3+) was 10 mg/L. For the same compound, the “Metals in 0.1M HCl” value ([4]; Fe^3+) was 10 mg/L and the “Metals in 1M HCl” value ([4]; Fe^3+) was 60 mg/L.
